Assay results from patent US7560468B2, “Substituted 1,4,8-triazaspiro[4,5]decan-2-one compounds” (Gruenenthal GmbH, priority 2004, dated 2009).

How the values were obtained:
[1] = test system: batrachotoxin (BTX) binding site of the sodium channel; assay: Affinity to the batrachotoxin (BTX) binding site of the sodium channel; settings: rat cerebrocortex synaptosomes, [3H]-batrachotoxinin A20 α-benzoate 10 nM; test concentration not given
5-HT transporter = molecular target: T1, 5-HT transporter (Rattus norvegicus, UniProt P31652); assay: Inhibition of 5-HT uptake in synaptosomes; type: biochemical; settings: for inhibition at 1 µM: read-out: Uptake_5-HT, rat, 1 μM, % inhibition
T1 construct: from tissue; host or cells: rat brain synaptosomes (marrow/medulla and pons), P2 fraction
T1 sequence (P31652 whole entry): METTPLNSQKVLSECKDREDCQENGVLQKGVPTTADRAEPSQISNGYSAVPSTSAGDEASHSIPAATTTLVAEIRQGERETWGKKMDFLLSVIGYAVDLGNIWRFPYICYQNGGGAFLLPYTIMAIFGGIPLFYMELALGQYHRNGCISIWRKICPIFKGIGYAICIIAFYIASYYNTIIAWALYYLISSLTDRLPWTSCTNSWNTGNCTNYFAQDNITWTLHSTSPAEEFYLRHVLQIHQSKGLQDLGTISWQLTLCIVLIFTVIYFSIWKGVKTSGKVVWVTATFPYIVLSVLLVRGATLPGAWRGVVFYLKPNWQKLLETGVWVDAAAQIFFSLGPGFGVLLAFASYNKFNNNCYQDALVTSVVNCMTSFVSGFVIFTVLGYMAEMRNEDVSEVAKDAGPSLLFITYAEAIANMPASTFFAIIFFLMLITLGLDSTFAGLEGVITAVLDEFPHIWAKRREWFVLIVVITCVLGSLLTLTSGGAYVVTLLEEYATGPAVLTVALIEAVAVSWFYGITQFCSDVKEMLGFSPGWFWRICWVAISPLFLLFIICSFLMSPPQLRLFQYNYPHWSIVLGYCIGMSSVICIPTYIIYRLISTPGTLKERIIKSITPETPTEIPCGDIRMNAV

Molecule: CSCCC1NC2(CCN(C(=S)Nc3cccc(C#N)c3)CC2)N(Cc2ccc(F)cc2)C1=O (centres unmarked) [Example 192, 1-(4-Fluorobenzyl)-3-(2-methylsulfanylethyl)-2-oxo-1,4,8-triazaspiro[4,5]decan-8-thiocarboxylic acid (3-cyanobenzol)amide]
- BTX Inhibition [1]: 35
- Uptake_5-HT, rat, 1 μM, % inhibition (5-HT transporter): 38%

Molecule: CSCCC1NC2(CCN(C(=O)Nc3cccc(F)c3)CC2)N(Cc2ccc3ccccc3c2)C1=O (centres unmarked) [Example 240, 3-(2-Methylsulfanylethyl)-1-naphthalin-2-ylmethyl-2-oxo-1,4,8-triazaspiro[4,5]decan-8-carboxylic acid (3-fluorobenzol)amide]
- BTX Inhibition [1]: 78
- Uptake_5-HT, rat, 1 μM, % inhibition (5-HT transporter): 63%

Molecule: CCOC(=O)CN1C(=O)C(Cc2ccccc2)NC12CCN(S(=O)(=O)c1ccccc1C(=O)OC)CC2 (centres unmarked) [Example 80, Methyl 2-(3-benzyl-1-ethoxycarbonylmethyl-2-oxo-1,4,8-triazaspiro[4,5]decan-8-sulfonyl)benzoate]
- BTX Inhibition [1]: 33
- inhibition at 1 µM (5-HT transporter): 84%

Molecule: CCCCN1C(=O)C(CCSC)NC12CCN(C(=S)Nc1cc(Cl)ccc1Cl)CC2 (centres unmarked) [Example 120, 1-Butyl-3-(2-methylsulfanylethyl)-2-oxo-1,4,8-triazaspiro[4,5]decan-8-thiocarboxylic acid (2,5-dichlorobenzol)amide]
- BTX Inhibition [1]: 49
- Uptake_5-HT, rat, 1 μM, % inhibition (5-HT transporter): 58%

Molecule: COC(=O)c1ccc(CN2C(=O)CNC23CCN(S(=O)(=O)c2c(C)cc(C)cc2C)CC3)cc1 [Example 60, Methyl-4-[2-oxo-8-(2,4,6-trimethylbenzolsulfonyl)-1,4,8-triazaspiro[4,5]dec-1-ylmethyl]-benzoate]
- BTX Inhibition [1]: 59
- Uptake_5-HT, rat, 1 μM, % inhibition (5-HT transporter): 65%

Molecule: CCCCN1C(=O)C(C(C)C)NC12CCN(C(=S)Nc1cc(Cl)ccc1Cl)CC2 (centres unmarked) [Example 117, 1-Butyl-3-isopropyl-2-oxo-1,4,8-triazaspiro[4,5]decan-8-thiocarboxylic acid (2,5-dichlorobenzol)amide]
- BTX Inhibition [1]: 44
- Uptake_5-HT, rat, 1 μM, % inhibition (5-HT transporter): 33%

Molecule: CC(C)C1NC2(CCN(C(=S)Nc3cc(Cl)ccc3Cl)CC2)N(Cc2ccccc2)C1=O (centres unmarked) [Example 136, 1-Benzyl-3-isopropyl-2-oxo-1,4,8-triazaspiro[4,5]decan-8-thiocarboxylic acid (2,5-dichlorobenzol)amide]
- BTX Inhibition [1]: 66
- Uptake_5-HT, rat, 1 μM, % inhibition (5-HT transporter): 44%

Molecule: Cc1ccc(S(=O)(=O)N2CCC3(CC2)NC(Cc2ccccc2)C(=O)N3Cc2ccccc2)cc1 (centres unmarked) [Example 45, 1,3-Dibenzyl-8-(toluol-4-sulfonyl)-1,4,8-triazaspiro[4,5]decan-2-one]
- BTX Inhibition [1]: 37
- Uptake_5-HT, rat, 1 μM, % inhibition (5-HT transporter): 74%

Molecule: O=C1C(Cc2ccccc2)NC2(CCN(S(=O)(=O)c3ccccc3C(F)(F)F)CC2)N1Cc1ccccc1F (centres unmarked) [Example 81, 3-Benzyl-1-(2-fluorobenzyl)-8-(2-trifluoromethylbenzolsulfonyl)-1,4,8-triazaspiro[4,5]decan-2-one]
- BTX Inhibition [1]: 87
- Uptake_5-HT, rat, 1 μM, % inhibition (5-HT transporter): 81%

Molecule: CCOC(=O)CN1C(=O)C(Cc2ccccc2)NC12CCN(S(=O)(=O)c1cccc(C)c1)CC2 (centres unmarked) [Example 63, Ethyl[3-benzyl-2-oxo-8-(toluol-3-sulfonyl)-1,4,8-triazaspiro[4,5]dec-1-yl]-acetate]
- BTX Inhibition [1]: 36
- Uptake_5-HT, rat, 1 μM, % inhibition (5-HT transporter): 59%

Molecule: CSCCC1NC2(CCN(C(=O)NCCc3ccccc3)CC2)N(Cc2ccc(F)cc2)C1=O (centres unmarked) [Example 239, 1-(4-Fluorobenzyl)-3-(2-methylsulfanylethyl)-2-oxo-1,4,8-triazaspiro[4,5]decan-8-carboxylic acid phenethylamide]
- BTX Inhibition [1]: 69
- inhibition at 1 µM (5-HT transporter): 36%

Molecule: CCCCN1C(=O)C(CCSC)NC12CCN(C(=O)Nc1ccccc1)CC2 (centres unmarked) [Example 207, 1-Butyl-3-(2-methylsulfanylethyl)-2-oxo-1,4,8-triazaspiro[4,5]decan-8-carboxylic acid benzolamide]
- BTX Inhibition [1]: 35
- Uptake_5-HT, rat, 1 μM, % inhibition (5-HT transporter): 39%

Molecule: CSCCC1NC2(CCN(S(=O)(=O)c3cc(C)c(Cl)cc3C)CC2)N(Cc2ccc(F)cc2)C1=O (centres unmarked) [Example 26, 8-(4-Chloro-2,5-dimethylbenzolsulfonyl)-1-(4-fluorobenzyl)-3-(2-methylsulfanylethyl)-1,4,8-triazaspiro[4,5]decan-2-one]
- BTX Inhibition [1]: 38
- Uptake_5-HT, rat, 1 μM, % inhibition (5-HT transporter): 68%

Molecule: CCCCN1C(=O)C(CCSC)NC12CCN(C(=O)Nc1ccc(OCC)cc1)CC2 (centres unmarked) [Example 221, 1-Butyl-3-(2-methylsulfanylethyl)-2-oxo-1,4,8-triazaspiro[4,5]decan-8-carboxylic acid (4-ethoxy-benzol)amide]
- BTX Inhibition [1]: 44
- Uptake_5-HT, rat, 1 μM, % inhibition (5-HT transporter): 47%

Molecule: Ethyl[3-b-8-(3-fluorobenzolcarbamoyl)-2-oxo-1,4,8-triazaspiro[4,5]dec-1-yl]-acetate [Example 245]
- BTX Inhibition [1]: 31
- Uptake_5-HT, rat, 1 μM, % inhibition (5-HT transporter): 51%

Molecule: CCCCN1C(=O)C(C(C)C)NC12CCN(C(=S)Nc1ccccc1)CC2 (centres unmarked) [Example 116, 1-Butyl-3-isopropyl-2-oxo-1,4,8-triazaspiro[4,5]decan-8-thiocarboxylic acid benzolamide]
- BTX Inhibition [1]: 30
- Uptake_5-HT, rat, 1 μM, % inhibition (5-HT transporter): 40%

Molecule: CCOC(=O)CN1C(=O)C(Cc2ccccc2)NC12CCN(S(=O)(=O)c1c(C)cc(C)cc1C)CC2 (centres unmarked) [Example 72, Ethyl[3-benzyl-2-oxo-8-(2,4,6-trimethylbenzolsulfonyl)-1,4,8-triazaspiro[4,5]dec-1-yl]-acetate]
- BTX Inhibition [1]: 75
- Uptake_5-HT, rat, 1 μM, % inhibition (5-HT transporter): 75%

Molecule: CC1(C)C2CCC1(CS(=O)(=O)N1CCC3(CC1)NCC(=O)N3Cc1ccccc1F)C(=O)C2 (centres unmarked) [Example 56, 8-(7,7-Dimethyl-2-oxobicyclo[2.2.1]hept-1-ylmethansulfonyl)-1-(2-fluorobenzyl)-1,4,8-triazaspiro[4,5]decan-2-one]
- BTX Inhibition [1]: 32
- inhibition at 1 µM (5-HT transporter): 60%

Molecule: CCCCN1C(=O)C(C(C)C)NC12CCN(C(=S)Nc1ccccc1C(=O)OC)CC2 (centres unmarked) [Example 143, Methyl 2-[(1-butyl-3-isopropyl-2-oxo-1,4,8-triazaspiro[4,5]decan-8-carbothioyl)amino]-benzoate]
- BTX Inhibition [1]: 51
- inhibition at 1 µM (5-HT transporter): 32%

Molecule: COC(=O)c1ccccc1S(=O)(=O)N1CCC2(CC1)NC(CCSC)C(=O)N2Cc1ccc(F)cc1 (centres unmarked) [Example 23, Methyl 2-[1-(4-fluorobenzyl)-3-(2-methylsulfanylethyl)-2-oxo-1,4,8-triazaspiro[4,5]decan-8-sulfonyl]-benzoate]
- BTX Inhibition [1]: 40
- inhibition at 1 µM (5-HT transporter): 69%

Molecule: CSCCC1NC2(CCN(S(=O)(=O)N(C)C)CC2)N(Cc2ccc3ccccc3c2)C1=O (centres unmarked) [Example 75, 3-(2-Methylsulfanylethyl)-1-naphthalin-2-ylmethyl-2-oxo-1,4,8-triazaspiro[4,5]decan-8-sulfonic acid dimethylamide]
- BTX Inhibition [1]: 62
- inhibition at 1 µM (5-HT transporter): 74%

Molecule: CCOC(=O)c1ccc(NC(=O)N2CCC3(CC2)NC(Cc2ccccc2)C(=O)N3Cc2ccccc2F)cc1 (centres unmarked) [Example 235, Ethyl 4-{[3-benzyl-1-(2-fluorobenzyl)-2-oxo-1,4,8-triazaspiro[4,5]decan-8-carbonyl]-amino}-benzoate]
- BTX Inhibition [1]: 77
- inhibition at 1 µM (5-HT transporter): 65%

Molecule: C=CCNC(=S)N1CCC2(CC1)NC(CCSC)C(=O)N2Cc1ccccc1C#N (centres unmarked) [Example 129, 1-(2-Cyanobenzyl)-3-(2-methylsulfanylethyl)-2-oxo-1,4,8-triazaspiro[4,5]decan-8-thiocarboxylic acid allylamide]
- BTX Inhibition [1]: 36
- inhibition at 1 µM (5-HT transporter): 41%

Molecule: CSCCC1NC2(CCN(C(=S)Nc3ccc(C(C)C)cc3)CC2)N(Cc2ccccc2)C1=O (centres unmarked) [Example 139, 1-Benzyl-3-(2-methylsulfanylethyl)-2-oxo-1,4,8-triazaspiro[4,5]decan-8-thiocarboxylic acid (4-isopropylbenzol)amide]
- BTX Inhibition [1]: 97
- Uptake_5-HT, rat, 1 μM, % inhibition (5-HT transporter): 63%

Molecule: CSCCC1NC2(CCN(S(=O)(=O)c3ccc(C)cc3)CC2)N(Cc2ccc(F)cc2)C1=O (centres unmarked) [Example 44, 1-(4-Fluorobenzyl)-3-(2-methylsulfanylethyl)-8-(toluol-4-sulfonyl)-1,4,8-triazaspiro[4,5]decan-2-one]
- BTX Inhibition [1]: 42
- Uptake_5-HT, rat, 1 μM, % inhibition (5-HT transporter): 42%

Molecule: CCOC(=O)CN1C(=O)C(CCSC)NC12CCN(S(=O)(=O)Cc1ccccc1)CC2 (centres unmarked) [Example 57, Ethyl[3-(2-methylsulfanylethyl)-2-oxo-8-benzolmethansulfonyl-1,4,8-triazaspiro[4,5]dec-1-yl]-acetate]
- BTX Inhibition [1]: 34
- Uptake_5-HT, rat, 1 μM, % inhibition (5-HT transporter): 32%

Molecule: COc1ccc(OC)c(NC(=O)N2CCC3(CC2)NC(CCSC)C(=O)N3Cc2cccc(C#N)c2)c1 (centres unmarked) [Example 242, 1-(3-Cyanobenzyl)-3-(2-methylsulfanylethyl)-2-oxo-1,4,8-triazaspiro[4,5]decan-8-carboxylic acid (2,5-dimethoxy-benzol)amide]
- BTX Inhibition [1]: 46
- Uptake_5-HT, rat, 1 μM, % inhibition (5-HT transporter): 30%

Molecule: CCCCN1C(=O)C(C(C)C)NC12CCN(C(=S)Nc1ccccc1F)CC2 (centres unmarked) [Example 122, 1-Butyl-3-isopropyl-2-oxo-1,4,8-triazaspiro[4,5]decan-8-thiocarboxylic acid (2-fluorobenzol)amide]
- BTX Inhibition [1]: 35
- Uptake_5-HT, rat, 1 μM, % inhibition (5-HT transporter): 32%
